# Source: article PMC11475281, “A Novel Liver Cancer-Selective Histone Deacetylase Inhibitor Is Effective against Hepatocellular Carcinoma and Induces Durable Responses with Immunotherapy” (ACS Pharmacology & Translational Science, 2024)
# Tests used:
# healthy C57Bl/6 mice = test: Maximum tolerated dose determination; format: in vivo; conditions: 100 mg/kg i.p. daily for 6 days
# Method: Based on the data from the aforementioned in vitro studies, we selected STR-V-53 as a candidate for further evaluation in xenograft and murine models of HCC. Before the efficacy studies, we first determined the plasma stability (murine and human) and maximum tolerated dose (MTD) of STR-V-53 in healthy C57Bl/6 mice. […]. For MTD determination, STR-V-53 was administered via i.p. injection using a formulation containing excipients found in FDA-approved drugs—dimethylacetamide (DMA)/Cremophor RH 40 (CRH)/Water (10%/20%/70%)—that we developed.[17] […]
# Then cells were treated with another 500 µL of 100 ug/mL PI staining at room temperature for 30 min. The cell cycle was analyzed with BD FACS Aria Illu analyzer, and the data were […]
# The stability of STR-V-53 in murine and human plasmas was determined through a contract agreement with Cyprotex, an Evotec Company (https://www.cyprotex.com) […]
# days in Kolliphor/DMA/water vehicle. We measured body weight and monitored daily food consumption, overall health, and mortality. […]
# C57Bl/6 mice, 6–8 weeks old, 3 males and 3 females per treatment group, were injected intraperitoneally with STR-V-53 at […] in Kolliphor/DMA/water vehicle. Eight hours after the injection, organs were harvested and frozen at −80 °C for subsequent quantification by LC-
# cytochrome P450 = format: in vitro ADME; conditions: maximum tested concentration of 100 μM
# SK-Hep-1 = test: MTS cell viability assay, 72 h; format: cell-based; conditions: Homo sapiens, SK-HEP1; Figure 1g; read-out: Anti-proliferation effects IC50 (μM) SK-Hep-1
# Description: (§1) We then screened STR-V-53 and all the synthesized glycosylated HDACi for their effects on the viability of three cell lines: A549 (lung adenocarcinoma), Hep-G2 (HCC), and VERO (a normal kidney epithelial cell). We used SORA and STR-V-48, a previously disclosed nonglycosylated compound, as controls.[25] […] Additionally, compound STR-V-167, the peracetylated analog of STR-V-53, largely retained the Hep-G2 selectivity of STR-V-53 (Table S2). Subsequently, we evaluated the effects of STR-V-53 on cell proliferation using a panel of human HCC cell lines (Huh-7, SK-Hep-1, and Hep3B) as well as Kupffer cells (liver resident macrophages) by MTS assay. We observed that STR-V-53 is 7- to 16-fold more cytotoxic against these HCC cell lines relative to the Kupffer cells (Figure 1g). […] Based on their weak HDAC and cell proliferation inhibition activities, we de-emphasized further evaluation of the class III compounds.
# (§2) 10-017-CV), supplemented with 10% fetal bovine serum (FBS) (Corning, 35-010-CV). Hep-G2 cells were cultured in phenol red-free Minimum Essential Medium (MEM) (Corning, 17-305-CV), supplemented with 10% fetal bovine serum (FBS). SK-Hep-1 in ATCC-formulated EMEM (ATCC® 30–2003™); Huh-7 in DMEM (containing 4 mM L-glutamine and 1 g/L glucose) with […]
# (§3) Kupffer Cell Media (Sekisui XenoTech, LLC, Cat. #K8700). Cells were seeded into a 96-well plate (2000 counts/100uL) for 24 h prior to treatment and then treated with various drug concentrations for 72 h. All drugs were dissolved in media with DMSO concentration maintained at 1%. The effect of compounds on cell viability was measured using the MTS assay (CellTiter 96 Aqueous One Solution and CellTiter 96 Non-Radioactive Cell Proliferation Assays, Promega, Madison, WI) as described by the manufacturer. IC50s were determined using Prism GraphPad 8. […]
# [1] = test system: Kupffer cells (liver resident macrophages); test: MTS cell viability assay, 72 h; format: cell-based; conditions: Macrophage; Figure 1g; read-out: Anti-proliferation effects IC50 (μM) Kupffer
# Description: as §1, §2, §3
# Hep3B = test: MTS cell viability assay, 72 h; format: cell-based; conditions: Homo sapiens, Figure 1g, read-out: Anti-proliferation effects IC50 (μM) Hep3 B
# Description: as §1, §2, §3
# Huh-7 = test: MTS cell viability assay, 72 h; format: cell-based; conditions: Homo sapiens, Figure 1g, read-out: Anti-proliferation effects IC50 (μM) Huh-7
# Description: as §1, §2, §3
structure (smiles),measurement,setting,value
O=C(CCCCCCn1cc(-c2ccc(O[C@H]3O[C@H](CO)[C@@H](O)[C@H](O)[C@H]3O)cc2)nn1)NO [STR-V-53],Body weight as an indicator of toxicity,healthy C57Bl/6 mice,no significant body weight loss
same,Cytochrome P450 inhibition,cytochrome P450,no inhibition
same,IC50,SK-Hep-1,13.9 µM
same,IC50,[1],> 100 µM
same,IC50,Hep3B,11.1 µM
same,IC50,Huh-7,6.25 µM
